# Measured values from US20240366571A1, “MODULATORS OF SK4 POTASSIUM CHANNEL AND USES THEREOF” (Ramot at Tel-Aviv University Ltd., priority 2022, published 2024).
# Entries after “also recorded” stand apart in the source; their conditions may differ.
# What was measured:
# [1] = test system: rat model of heart failure (HF) post-myocardial infarction (MI); test: Rat model of heart failure post-myocardial infarction; type: in vivo; conditions: vs vehicle
# Method: […] Experimental setup and details are described, for example, in Murninkas et al. Am J Physiol-Heart Circul Physiol. (2021), 320, H713-H24.
# Following electrode implantation and animal recovery, baseline EP (electrophysiological) measurements were performed followed by random division of the animals to treatment with the exemplary compound vs. treatment with vehicle.
# Masson-trichrome staining: staining was performed according to a standard procedure, as described, for example, in N. Foot, Stain Technology (2009), Volume 8, 1933—Issue 3, 101-110.
# [2] = molecular target: T1, human SK1 (Homo sapiens, UniProt Q92952); test: Whole-cell patch-clamp of SK1 currents in CHO cells; type: cell-based; conditions: 20 μM
# T1 construct: expressed in transfected cells; host or cells: CHO cells
# Method: (§1) Constructs: For CHO cell transfection, the following were cloned: human SK1, rat SK2, human SK3, and rat calmodulin into the pcDNA3 vector, human SK4 into pEGFP-C1 vector, and PIP4,5-kinase into an IRES-dsRed plasmid. The mutations were introduced using the PCR-based QuikChange™ site-directed mutagenesis (Stratagene®) and were verified by full sequencing of the entire plasmid vector.
# (§2) Cell Culture and Transfection: Chinese hamster ovary (CHO) cells were grown in Dulbecco's modified Eagle's medium supplemented with 2 millimolar (mM) glutamine, 10% fetal calf serum, and antibiotics. In brief, 40,000 cells seeded on poly-L-lysine-coated glass coverslips (13 millimeter (mm) in diameter) in a 24-multiwell plate were transfected with 0.5 microgram (μg) pEGFP-SK4/0.5 μg mutant SK4, 1.2 μg dsRed-PIP4,5-kinase or with 1 μg SK1/SK2/SK3 together with pIRES-CD8 (0.3 μg) as a marker for transfection. Transfection was performed using TransIT-LT1 Transfection Reagent (Mirus Bio) according to the manufacturer's protocol. For electrophysiology, transfected cells were visualized approximately 40 hours after transfection with a Zeiss Axiovert 35 inverted florescence microscope.
# Whole-cell patch-clamp recording: Voltage-clamp recordings were performed using the whole-cell configuration of the patch-clamp technique. Signals were amplified using an […] patch-clamp amplifier (Molecular Devices), sampled at 5 kHz and filtered at 2.4 kHz via a four pole Bessel low pass filter. Data were acquired using pClamp™ 10.5 software in conjunction with an Axon™ DigiData® 1440A interface (Molecular Devices). The patch pipettes were pulled from borosilicate glass (Harvard Apparatus) with a resistance of 3-5 megaohms (MΩ). The intracellular pipette solution contained 130 mM KCl, 5 mM EGTA, 10 mM HEPES, pH 7.3 (adjusted with KOH), and CaCl2 calculated for a final concentration of 1 μM free-Ca^2+, by MAXCHELATOR (WEBMAXC STANDARD) software, with sucrose added to adjust osmolarity to 290 mosM. […]
# [3] = molecular target: T2, human SK3 (Homo sapiens, UniProt Q9UGI6); test: Whole-cell patch-clamp of SK3 currents in CHO cells; type: cell-based; conditions: 20 μM
# T2 construct: expressed in transfected cells; host or cells: CHO cells
# Method: as §1
# Cell Culture and Transfection: Chinese hamster ovary (CHO) cells were grown in Dulbecco's modified Eagle's medium supplemented with 2 millimolar (mM) glutamine, 10% fetal calf serum, and antibiotics. In brief, 40,000 cells seeded on poly-L-lysine-coated glass coverslips (13 millimeter (mm) in diameter) in a 24-multiwell plate were transfected with 0.5 microgram (μg) pEGFP-SK4/0.5 μg mutant SK4, 1.2 μg dsRed-PIP4,5-kinase or with 1 μg SK1/SK2/SK3 together with pIRES-CD8 (0.3 μg) as a marker for transfection. […]
# Whole-cell patch-clamp recording: Voltage-clamp recordings were performed using the whole-cell configuration of the patch-clamp technique. […] The intracellular pipette solution contained 130 mM KCl, 5 mM EGTA, 10 mM HEPES, pH 7.3 (adjusted with KOH), and CaCl2 calculated for a final concentration of 1 μM free-Ca^2+, by MAXCHELATOR (WEBMAXC STANDARD) software, with sucrose added to adjust osmolarity to 290 mosM. […]
# [4] = molecular target: T3, human SK4 (Homo sapiens, UniProt O15554); test: Whole-cell patch-clamp of WT SK4 K+ currents in transfected CHO cells; type: cell-based
# T3 construct: expressed in transfected cells; host or cells: CHO cells
# Method: as §1, §2
# Whole-cell patch-clamp recording: Voltage-clamp recordings were performed using the whole-cell configuration of the patch-clamp technique. Signals were amplified using an […] patch-clamp amplifier (Molecular Devices), sampled at 5 kHz and filtered at 2.4 kHz via a four pole Bessel low pass filter. Data were acquired using pClamp™ 10.5 software in conjunction with an Axon™ DigiData® 1440A interface (Molecular Devices). The patch pipettes were pulled from borosilicate glass (Harvard Apparatus) with a resistance of 3-5 megaohms (MΩ). The intracellular pipette solution contained 130 mM KCl, 5 mM EGTA, 10 mM HEPES, pH 7.3 (adjusted with KOH), and CaCl2 calculated for a final concentration of 1 μM free-Ca^2+, by MAXCHELATOR (WEBMAXC STANDARD) software, with sucrose added to adjust osmolarity to 290 mosM. The external solution (310 mosM) contained 140 mM NaCl, 4 mM KCl, 1.8 mM CaCl2, 1.2 mM MgCl2, 11 mM glucose, and 5.5 mM HEPES adjusted with NaOH to pH 7.3. CHO cells were held at −90 millivolt (mV) and SK4 K^+ currents were activated using a voltage ramp protocol from −100 mV to +60 mV for 150 milliseconds. Electrophysiological data analysis was performed using the Clampfit program (pClamp™ 10.5; Molecular Devices).
# Some of the compounds were tested by comparing trace of WT SK4 channel currents in the absence and presence of 20 μM of the tested compound.
# [5] = test system: isolated rat hearts; test: Atrial fibrillation induction by burst pacing with carbachol in isolated rat hearts
# Method: Atrial Fibrillation induction in Sprague-Dawley rats: For evaluation of Tram-34 and BA6b9 on atrial fibrillation (AF) induction, a custom-made quadripolar electrode was inserted for simultaneous recording and pacing on the HRA. To increase susceptibility for reentry and atrial tachyarrhythmia, the cholinergic agonist carbachol was used. First, baseline AERP was measured under normal physiological conditions, and the measurement was repeated upon exposure to 0.3 μM carbachol, 0.3 μM carbachol+10 μM Tram-34 or 0.3 μM carbachol+10 μM BA6b9. Then, for AF induction, burst pacing was applied to the HRA under increasing pacing thresholds (2×, 3×, 4×, 5×, and 6× threshold). This protocol included two consecutive 5 second bursts at a cycle length of 20 milliseconds for each threshold. This protocol was tested under […] conditions: normal physiological conditions, 0.3 μM carbachol, 0.3 μM carbachol+10 μM Tram-34, or 0.3 μM carbachol+10 μM BA6b9. To determine AF susceptibility under each condition, an AFIS (AF induction score) ranking system was created, relying on the level of threshold intensity when AF induction was successful. Lower AF induction threshold means higher AFIS. The ranking was as follows: induction at 2×-diastolic threshold received the highest score of 5, at 3× the received score was 4, at 4× the received score was 3, at 5× the received score was 2, at 6× the received score was 1, and if no induction occurred it scored zero. For AF sustainability quantification, sustained AF was determined as lasting ≥5 minutes. Non-sustained AF received a score of zero and sustained AF received a score of 1.
# [6] = 20 mg/kg daily for 2 weeks from one week post-MI
smiles,measurement,setting,value
"CCCCCCCn1c(=O)oc2ccccc21 [BA6b9, 3-heptylbenzo[d]oxazol-2(3H)-one]",AF induction,[1]; [6],markedly attenuates
same,EF (ejection fraction),[1]; [6],does not affect
same,total AF duration,[1]; [6],markedly attenuates
same,LA fibrosis,[1]; Masson-trichrome staining after post-MI treatment,reduction
same,LA smooth muscle actin (SMA),[1]; after post-MI treatment,reduction
same,SK1 activity in comparison with control,[2],118%
same,SK1 drug-to-control current ratio,[2],1.18
same,effect on SK1 currents (representative trace),[2],nearly nullified effect; also recorded: did not lead to modulation
same,SK3 activity in comparison with control,[3],95%
same,SK3 drug-to-control current ratio,[3],0.95
same,inhibition at 20 µM,"[4]; CHO, 20 μM, whole-cell",56%
same,SK4 K+ channel modulating activity,[4]; WT SK4 currents in absence and presence of 20 μM compound,inhibited; also recorded: Inhibitor
same,reduction of AFIS,[5]; 10 μM + 0.3 μM carbachol vs carbachol alone,48%
same,AFIS (AF induction score),"[5]; 10 μM + 0.3 μM carbachol, 3.1 with carbachol alone",1.6
same,sustained AF induction,"[5]; 10 μM + 0.3 μM carbachol, 100% with carbachol alone",70%
same,heart preparations in which AF sustainability was prevented,"[5]; 10 μM, burst pacing",30%
